{
  "source": "ChEMBL document CHEMBL1201862",
  "about": "“PubChem BioAssay data set” (2004)",
  "key": {"[1]": {"biological_target": "T1, High affinity choline transporter 1 (Homo sapiens, UniProt Q9GZV3)", "T1 sequence (Q9GZV3 whole entry)": "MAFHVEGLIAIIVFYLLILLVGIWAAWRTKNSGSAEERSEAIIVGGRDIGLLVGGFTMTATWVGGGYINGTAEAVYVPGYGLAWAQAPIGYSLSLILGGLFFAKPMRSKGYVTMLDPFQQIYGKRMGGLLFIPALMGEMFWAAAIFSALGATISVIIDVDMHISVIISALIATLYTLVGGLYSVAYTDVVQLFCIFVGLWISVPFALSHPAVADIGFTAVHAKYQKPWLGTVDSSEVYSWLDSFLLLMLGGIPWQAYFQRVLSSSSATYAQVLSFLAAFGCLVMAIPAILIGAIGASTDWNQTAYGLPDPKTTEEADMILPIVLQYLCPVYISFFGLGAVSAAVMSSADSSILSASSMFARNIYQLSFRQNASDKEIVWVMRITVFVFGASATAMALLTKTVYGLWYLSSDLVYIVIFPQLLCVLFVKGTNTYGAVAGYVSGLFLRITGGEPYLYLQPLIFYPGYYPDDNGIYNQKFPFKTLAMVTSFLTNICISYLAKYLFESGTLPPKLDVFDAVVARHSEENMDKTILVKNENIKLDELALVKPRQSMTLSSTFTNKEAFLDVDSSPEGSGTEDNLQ", "assay": "CHT inhibitors, dose response, cell-based, 5-point CRC, membrane potential dye (AID 504840)", "format": "functional"}, "[2]": {"biological_target": "T1, High affinity choline transporter 1", "assay": "CHT inhibitors, dose response, cell-based, 10-point CRC, membrane potential dye (AID 588401);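 note: membrane potential dye fluorescence of choline-evoked depolarization via CHT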", "format": "functional"}, "[3]": {"assay": "inhibitors of intracellular T. cruzi replication, confirmation, NIH3T3 host cells, beta-gal luminescence (AID 2044);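 note: luminescent beta-galactosidase reporter signal from transgenic T. cruzi replicating inside host cells; inhibitors lower the luminescence signal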", "format": "functional, cell-based"}, "[4]": {"assay": "cytotoxicity toward NIH3T3 fibroblasts, dose response, counter-screen, cell-based, ATP luminescence, mouse fibroblasts (AID 2010);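 note: cells exposed to compound for about 90 hours before reading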", "format": "functional"}, "[5]": {"biological_target": "Botulinum neurotoxin type A (Clostridium botulinum (strain Hall / ATCC 3502 / NCTC 13319 / Type A), UniProt P0DPI1)", "sequence (P0DPI1 2-448 limits assumed)": "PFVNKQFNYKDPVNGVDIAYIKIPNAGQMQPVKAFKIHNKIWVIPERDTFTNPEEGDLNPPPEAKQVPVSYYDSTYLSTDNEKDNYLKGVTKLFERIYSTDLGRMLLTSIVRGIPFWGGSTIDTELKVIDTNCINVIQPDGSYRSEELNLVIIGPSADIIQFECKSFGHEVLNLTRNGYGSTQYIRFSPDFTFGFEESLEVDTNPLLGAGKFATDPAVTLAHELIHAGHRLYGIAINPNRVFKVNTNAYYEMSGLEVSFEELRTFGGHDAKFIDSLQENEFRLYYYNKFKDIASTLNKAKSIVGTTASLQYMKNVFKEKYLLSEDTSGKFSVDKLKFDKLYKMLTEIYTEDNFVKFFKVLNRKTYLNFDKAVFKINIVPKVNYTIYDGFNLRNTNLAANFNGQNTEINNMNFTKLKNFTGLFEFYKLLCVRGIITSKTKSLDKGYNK", "assay": "High-throughput multiplex microsphere dose response for inhibitors of toxin protease, specifically Botulinum neurotoxin light chain A protease, compounds from Cherry Pick 02.", "format": "functional", "conditions": "read-out: EC50_MICROM"}, "[6]": {"biological_target": "Lethal factor (Bacillus anthracis, UniProt P15917)", "sequence (P15917 whole entry)": "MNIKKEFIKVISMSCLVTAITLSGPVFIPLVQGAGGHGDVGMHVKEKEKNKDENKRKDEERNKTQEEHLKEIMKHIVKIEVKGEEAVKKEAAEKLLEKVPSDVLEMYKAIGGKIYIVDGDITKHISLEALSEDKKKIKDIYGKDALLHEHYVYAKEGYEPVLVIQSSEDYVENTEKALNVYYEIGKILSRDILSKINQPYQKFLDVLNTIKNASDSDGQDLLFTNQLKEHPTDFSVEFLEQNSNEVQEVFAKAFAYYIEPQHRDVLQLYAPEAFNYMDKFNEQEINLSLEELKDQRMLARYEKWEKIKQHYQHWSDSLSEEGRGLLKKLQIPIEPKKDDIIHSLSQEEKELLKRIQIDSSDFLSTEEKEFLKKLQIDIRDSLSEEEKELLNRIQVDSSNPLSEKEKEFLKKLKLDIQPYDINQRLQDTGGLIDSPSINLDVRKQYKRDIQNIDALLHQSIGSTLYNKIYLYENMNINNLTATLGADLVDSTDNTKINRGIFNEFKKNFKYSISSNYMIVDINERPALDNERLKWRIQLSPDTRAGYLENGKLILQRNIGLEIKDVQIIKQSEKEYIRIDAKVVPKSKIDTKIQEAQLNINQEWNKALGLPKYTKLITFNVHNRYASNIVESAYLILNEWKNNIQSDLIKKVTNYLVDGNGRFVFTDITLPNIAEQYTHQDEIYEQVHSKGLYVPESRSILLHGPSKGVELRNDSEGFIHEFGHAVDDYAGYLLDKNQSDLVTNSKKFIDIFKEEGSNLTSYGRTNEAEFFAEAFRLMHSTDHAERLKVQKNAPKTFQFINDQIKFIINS", "assay": "High-throughput multiplex microsphere dose response for inhibitors of toxin protease, specifically Lethal Factor protease, compounds from Cherry Pick 02.", "format": "functional", "conditions": "read-out: EC50_MICROM"}, "[7]": {"biological_target": "Botulinum neurotoxin type F (Clostridium botulinum, UniProt P30996)", "sequence (P30996 1-436 limits assumed)": "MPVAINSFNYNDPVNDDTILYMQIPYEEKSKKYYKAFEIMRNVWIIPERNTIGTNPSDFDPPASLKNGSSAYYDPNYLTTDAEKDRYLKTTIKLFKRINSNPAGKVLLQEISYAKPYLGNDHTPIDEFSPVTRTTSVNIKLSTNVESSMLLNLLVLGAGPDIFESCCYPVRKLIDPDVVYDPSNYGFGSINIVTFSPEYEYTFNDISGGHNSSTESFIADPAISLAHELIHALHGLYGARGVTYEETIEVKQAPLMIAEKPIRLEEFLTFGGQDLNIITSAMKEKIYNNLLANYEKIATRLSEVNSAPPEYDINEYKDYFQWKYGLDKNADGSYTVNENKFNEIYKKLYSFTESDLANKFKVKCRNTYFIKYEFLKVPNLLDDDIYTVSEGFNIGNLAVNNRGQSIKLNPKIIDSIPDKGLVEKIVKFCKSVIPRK", "assay": "High-throughput multiplex microsphere dose response for inhibitors of toxin protease, specifically Botulinum neurotoxin light chain F protease, compounds from Cherry Pick 02.", "format": "functional", "conditions": "read-out: EC50_MICROM"}, "[8]": {"test_system": "Streptococcus sp. 'group A'", "assay": "growth inhibition of control SK(-) GAS strain, dose response, counter-screen for streptokinase expression inhibitor project, luminescence, kanamycin, BacTiterGlo, confirmation (AID 1900)", "format": "functional, organism-based"}, "[9]": {"biological_target": "T2, Streptokinase A (Streptococcus pyogenes serotype M1, UniProt P10520)", "T2 sequence (P10520 whole entry)": "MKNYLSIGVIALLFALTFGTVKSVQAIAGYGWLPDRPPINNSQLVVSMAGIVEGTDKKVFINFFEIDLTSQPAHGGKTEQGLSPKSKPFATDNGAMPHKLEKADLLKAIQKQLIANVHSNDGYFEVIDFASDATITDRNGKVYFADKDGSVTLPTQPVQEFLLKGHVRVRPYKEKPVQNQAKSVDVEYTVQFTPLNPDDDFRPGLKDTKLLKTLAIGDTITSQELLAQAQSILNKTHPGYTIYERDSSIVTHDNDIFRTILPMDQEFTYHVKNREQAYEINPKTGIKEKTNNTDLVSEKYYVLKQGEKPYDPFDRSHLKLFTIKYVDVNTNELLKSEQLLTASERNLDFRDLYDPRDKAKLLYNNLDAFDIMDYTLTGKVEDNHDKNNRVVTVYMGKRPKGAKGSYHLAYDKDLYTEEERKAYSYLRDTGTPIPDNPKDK", "assay": "S. pyogenes streptokinase expression inhibitors, potency, dose response, plasminogen activation absorbance, OD405 (AID 1914);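 note: secreted streptokinase activity via plasminogen activation per viability signal from cell pellet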", "format": "functional, Streptococcus pyogenes M1 GAS"}, "[10]": {"assay": "growth suppression of PTEN-null colon cells, dose response, cell-based, HCT116 PTEN knockout (AID 1047);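 note: cells exposed to compound for 60 hours before readout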", "format": "functional"}, "[11]": {"biological_target": "T3, Sphingosine 1-phosphate receptor 4 (Homo sapiens, UniProt O95977)", "T3 sequence (O95977 whole entry)": "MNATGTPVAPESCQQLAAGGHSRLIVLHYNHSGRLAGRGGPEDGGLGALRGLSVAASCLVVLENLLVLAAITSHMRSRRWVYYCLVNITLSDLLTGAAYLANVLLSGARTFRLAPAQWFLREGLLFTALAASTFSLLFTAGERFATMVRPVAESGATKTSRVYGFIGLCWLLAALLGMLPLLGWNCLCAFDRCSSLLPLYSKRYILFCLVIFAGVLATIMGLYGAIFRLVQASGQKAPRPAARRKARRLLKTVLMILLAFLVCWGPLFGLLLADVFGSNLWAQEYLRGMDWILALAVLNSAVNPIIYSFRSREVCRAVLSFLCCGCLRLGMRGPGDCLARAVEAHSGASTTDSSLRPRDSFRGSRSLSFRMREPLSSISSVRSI", "assay": "Late stage fluorescence dose response cell-based screening assay for antagonists of the Sphingosine 1-Phosphate Receptor 4 (S1P4). [Related pubchem assays: 1524 (Confirmation screen (S1P4 antagonists).), 1510 (Primary screen (S1P4 antagonists).), 1853 (Summary AID (S1P4 antagonists).), 1692 (Dose response screen (S1P4 antagonists).)]", "format": "functional"}, "[12]": {"assay": "growth suppression of beta-catenin-knockout colon cells, dose response, cell-based, HCT116, human colon tumor (AID 1045);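 note: cells exposed to compound for 60 hours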", "format": "functional"}, "[13]": {"biological_target": "T3, Sphingosine 1-phosphate receptor 4", "assay": "Fluorescence dose response cell-based high throughput screening assay for antagonists of the Sphingosine 1-Phosphate Receptor 4 (S1P4). [Related pubchem assays: 1524 (Confirmation in triplicates.), 1510 (Primary screen.)]", "format": "functional"}, "[14]": {"biological_target": "Sphingosine 1-phosphate receptor 1 (Homo sapiens, UniProt P21453)", "sequence (P21453 whole entry)": "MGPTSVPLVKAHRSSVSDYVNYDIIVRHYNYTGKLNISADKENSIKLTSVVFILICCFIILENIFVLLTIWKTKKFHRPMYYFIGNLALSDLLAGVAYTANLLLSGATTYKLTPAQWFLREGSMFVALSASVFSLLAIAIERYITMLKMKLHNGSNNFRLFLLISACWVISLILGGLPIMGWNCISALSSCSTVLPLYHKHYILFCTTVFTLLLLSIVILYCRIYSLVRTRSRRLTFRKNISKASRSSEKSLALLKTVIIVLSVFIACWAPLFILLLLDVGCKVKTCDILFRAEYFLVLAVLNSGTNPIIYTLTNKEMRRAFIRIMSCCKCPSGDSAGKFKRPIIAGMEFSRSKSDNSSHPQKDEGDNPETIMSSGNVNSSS", "format": "functional"}, "[15]": {"test_system": "Streptococcus", "assay": "Group A Streptococcus viability loss, dose response, counter-screen for streptokinase expression inhibitor project, luminescence, BacTiterGlo (AID 1915);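 note: potency for reduction of bacterial viability or growth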", "format": "functional, organism-based"}, "[16]": {"assay": "Luminescence Cell-Based Dose Retest to Confirm Inhibitors of Cancer Stem Cells. [Related pubchem assays (depositor defined):AID2717, AID2721]", "format": "functional", "conditions": "Homo sapiens"}, "[17]": {"biological_target": "T4, Replicative DNA helicase DnaB (Mycobacterium tuberculosis, UniProt P9WMR3)", "T4 sequence (P9WMR3 whole entry)": "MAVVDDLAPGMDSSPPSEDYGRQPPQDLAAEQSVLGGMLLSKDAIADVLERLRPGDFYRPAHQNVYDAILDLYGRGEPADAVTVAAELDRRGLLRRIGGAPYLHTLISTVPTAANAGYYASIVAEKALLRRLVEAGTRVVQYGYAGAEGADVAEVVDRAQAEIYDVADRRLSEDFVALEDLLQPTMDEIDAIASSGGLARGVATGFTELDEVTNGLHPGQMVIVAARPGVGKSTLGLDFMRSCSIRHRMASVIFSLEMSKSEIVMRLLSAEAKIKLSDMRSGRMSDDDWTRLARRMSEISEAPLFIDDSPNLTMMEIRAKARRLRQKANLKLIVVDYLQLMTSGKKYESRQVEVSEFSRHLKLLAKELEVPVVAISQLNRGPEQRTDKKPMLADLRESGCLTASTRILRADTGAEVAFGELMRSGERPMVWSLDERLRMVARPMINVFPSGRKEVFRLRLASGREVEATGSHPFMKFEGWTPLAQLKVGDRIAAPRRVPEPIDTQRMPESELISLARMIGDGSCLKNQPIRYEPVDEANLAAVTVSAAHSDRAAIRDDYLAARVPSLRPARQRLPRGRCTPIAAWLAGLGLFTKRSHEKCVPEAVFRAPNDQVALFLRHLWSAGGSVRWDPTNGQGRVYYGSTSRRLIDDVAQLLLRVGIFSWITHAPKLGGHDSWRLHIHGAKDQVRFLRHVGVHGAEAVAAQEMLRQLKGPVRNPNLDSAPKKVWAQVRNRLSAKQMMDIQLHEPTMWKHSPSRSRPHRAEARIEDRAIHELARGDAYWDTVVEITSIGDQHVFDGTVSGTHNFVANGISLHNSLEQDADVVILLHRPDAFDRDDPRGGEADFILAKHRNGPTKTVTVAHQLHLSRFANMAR", "assay": "DnaB intein splicing inhibitors, dose response, biochemical, cell-free fluorescence (AID 449749)", "format": "functional"}, "[18]": {"biological_target": "T5, Protein RecA (Mycobacterium tuberculosis, UniProt P9WHJ3)", "T5 sequence (P9WHJ3 whole entry)": "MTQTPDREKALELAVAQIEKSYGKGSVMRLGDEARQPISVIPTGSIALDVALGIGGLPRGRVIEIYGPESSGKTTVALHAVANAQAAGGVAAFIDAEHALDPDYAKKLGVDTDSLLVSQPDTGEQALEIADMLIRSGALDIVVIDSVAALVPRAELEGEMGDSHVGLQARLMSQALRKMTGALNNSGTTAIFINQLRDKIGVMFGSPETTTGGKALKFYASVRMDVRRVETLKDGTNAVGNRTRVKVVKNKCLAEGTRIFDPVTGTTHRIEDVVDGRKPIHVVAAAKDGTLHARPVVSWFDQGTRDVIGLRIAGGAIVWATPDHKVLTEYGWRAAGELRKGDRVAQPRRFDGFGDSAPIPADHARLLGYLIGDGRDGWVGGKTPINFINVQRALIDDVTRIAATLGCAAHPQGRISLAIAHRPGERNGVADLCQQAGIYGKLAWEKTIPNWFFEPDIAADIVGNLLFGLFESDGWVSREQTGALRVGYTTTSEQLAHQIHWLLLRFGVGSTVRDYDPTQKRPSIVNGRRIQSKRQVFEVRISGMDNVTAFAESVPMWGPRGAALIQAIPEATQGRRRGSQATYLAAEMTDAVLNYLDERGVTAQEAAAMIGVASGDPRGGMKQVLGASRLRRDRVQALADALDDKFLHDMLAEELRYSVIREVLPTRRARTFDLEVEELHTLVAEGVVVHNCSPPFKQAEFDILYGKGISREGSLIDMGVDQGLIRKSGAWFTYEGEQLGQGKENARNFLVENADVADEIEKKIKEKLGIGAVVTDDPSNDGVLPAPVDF", "assay": "Fluorescence Cell-Free Homogeneous Dose Retest to Identify Inhibitors of RecA-Intein Splicing Activity. [Related pubchem assays (depositor defined):AID2097, AID2223, AID489010, AID492950]", "format": "functional"}, "[19]": {"biological_target": "Melanocortin receptor 4 (Homo sapiens, UniProt P32245)", "sequence (P32245 whole entry)": "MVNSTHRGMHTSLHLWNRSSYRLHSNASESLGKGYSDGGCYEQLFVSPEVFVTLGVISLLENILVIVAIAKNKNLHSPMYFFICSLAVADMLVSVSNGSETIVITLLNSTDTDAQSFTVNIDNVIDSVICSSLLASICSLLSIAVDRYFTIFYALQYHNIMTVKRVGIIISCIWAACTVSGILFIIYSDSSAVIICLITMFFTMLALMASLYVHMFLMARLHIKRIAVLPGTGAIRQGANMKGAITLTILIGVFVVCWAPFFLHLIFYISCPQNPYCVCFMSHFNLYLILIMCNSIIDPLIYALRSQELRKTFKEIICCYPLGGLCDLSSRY", "assay": "MC4R antagonist potency on cAMP, dose response, cell-based, TR-FRET, biased antagonists (AID 602298);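 note: antagonist potency against agonist-stimulated cAMP production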", "format": "functional"}, "[20]": {"assay": "nonselective inhibitors of cellular cAMP signaling, dose response, counter-screen for MC4R biased antagonist project, cell-based, TR-FRET cAMP detection (AID 602305);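 note: U2OS cells stimulated with forskolin near its EC80 as the cAMP inducer; potency is for inhibition of forskolin-stimulated cAMP signaling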", "format": "functional"}},
  "note": "Activity calls are given as the source filed them.",
  "data": [
    {"compound": "Clc1cc(I)cc(Cl)c1N=C1NCCN1", "values": [
      {"measurement": "IC50", "setting": "[1]", "value": "1.12 µM (active)"},
      {"measurement": "IC50", "setting": "[2]", "value": "0.843 µM (active)"}
    ]},
    {"compound": "Cc1cc2ccccc2n1CCNC(=O)COc1ccccc1", "values": [
      {"measurement": "EC50", "setting": "[3]", "value": "1.16 µM (active)"},
      {"measurement": "EC50", "setting": "[4]", "value": "> 30 µM (not active)"},
      {"measurement": "EC50", "setting": "[5]", "value": "4.9 µM (active)"},
      {"measurement": "EC50", "setting": "[6]", "value": "1.4 µM (active)"},
      {"measurement": "EC50", "setting": "[7]", "value": "> 20 µM (inactive)"}
    ]},
    {"compound": "O=[N+]([O-])c1cc(S(=O)(=O)C(F)(F)F)ccc1Sc1nc2ccccc2[nH]1", "values": [
      {"measurement": "EC50", "setting": "[8]", "value": "5.93 µM (active)"},
      {"measurement": "EC50", "setting": "[9]", "value": "> 150 µM (not active)"},
      {"measurement": "EC50", "setting": "[10]", "value": "7.22 µM (active)"},
      {"measurement": "IC50", "setting": "[11]", "value": "0.77 µM (active)"},
      {"measurement": "EC50", "setting": "[12]", "value": "6.72 µM (active)"},
      {"measurement": "IC50", "setting": "[13]", "value": "1.29 µM (active)"},
      {"measurement": "IC50", "setting": "[14]", "value": "34.3 µM (not active)"},
      {"measurement": "EC50", "setting": "[15]", "value": "11.9 µM (active)"},
      {"measurement": "AC50", "setting": "[16]", "value": "4.04 µM (active)"},
      {"measurement": "AC50", "setting": "[17]", "value": "2.83 µM (active)"},
      {"measurement": "EC50", "setting": "[18]", "value": "0.774 µM (active)"},
      {"measurement": "IC50", "setting": "[19]", "value": "7.65 µM (active)"},
      {"measurement": "IC50", "setting": "[20]", "value": "> 64.6 µM (inactive)"}
    ]}
  ]
}
